Tests used:
[1] = biological target: T1, Protein deacetylase HDAC6 (Homo sapiens, UniProt Q9UBN7); assay: Inhibition of HDAC6 (unknown origin)
T1 sequence (Q9UBN7 whole entry): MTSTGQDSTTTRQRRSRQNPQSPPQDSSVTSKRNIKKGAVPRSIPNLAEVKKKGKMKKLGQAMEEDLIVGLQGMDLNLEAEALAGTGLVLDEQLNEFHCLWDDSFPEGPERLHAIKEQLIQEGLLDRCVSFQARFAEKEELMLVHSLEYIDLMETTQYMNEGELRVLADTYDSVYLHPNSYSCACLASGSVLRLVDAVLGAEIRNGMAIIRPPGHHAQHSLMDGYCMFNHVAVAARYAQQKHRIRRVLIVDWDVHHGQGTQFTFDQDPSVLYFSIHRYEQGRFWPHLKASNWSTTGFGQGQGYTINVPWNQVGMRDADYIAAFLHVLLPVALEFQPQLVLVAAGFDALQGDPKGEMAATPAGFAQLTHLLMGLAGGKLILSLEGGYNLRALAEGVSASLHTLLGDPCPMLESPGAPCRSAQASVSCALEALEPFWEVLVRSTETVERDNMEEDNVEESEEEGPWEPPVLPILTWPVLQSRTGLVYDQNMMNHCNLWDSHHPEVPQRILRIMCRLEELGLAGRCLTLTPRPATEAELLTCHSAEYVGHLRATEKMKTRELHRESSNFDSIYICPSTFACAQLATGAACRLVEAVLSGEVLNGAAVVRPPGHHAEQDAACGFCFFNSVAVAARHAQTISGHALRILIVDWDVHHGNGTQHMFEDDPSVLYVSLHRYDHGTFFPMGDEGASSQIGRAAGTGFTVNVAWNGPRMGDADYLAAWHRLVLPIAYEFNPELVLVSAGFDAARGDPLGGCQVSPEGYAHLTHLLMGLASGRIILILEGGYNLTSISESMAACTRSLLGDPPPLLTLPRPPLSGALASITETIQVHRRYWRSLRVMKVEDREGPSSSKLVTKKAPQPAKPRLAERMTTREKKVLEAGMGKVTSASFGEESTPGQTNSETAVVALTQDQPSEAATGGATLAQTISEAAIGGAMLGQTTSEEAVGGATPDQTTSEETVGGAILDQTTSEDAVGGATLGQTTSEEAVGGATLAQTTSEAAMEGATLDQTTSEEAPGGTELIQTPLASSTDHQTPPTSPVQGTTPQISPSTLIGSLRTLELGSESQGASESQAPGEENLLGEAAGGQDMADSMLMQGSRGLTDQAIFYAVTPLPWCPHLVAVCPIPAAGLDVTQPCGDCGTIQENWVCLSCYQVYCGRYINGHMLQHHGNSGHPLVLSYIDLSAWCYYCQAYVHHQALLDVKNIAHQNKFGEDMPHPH

Histone deacetylase 8 = biological target: T2, Histone deacetylase 8 (Homo sapiens, UniProt Q9BY41); assay: Inhibition of HDAC8 (unknown origin) using p53 (379 to 382 residues)(RHK(Ac)K(ac)AMC) as substrate by fluorescent method
T2 sequence (Q9BY41 whole entry): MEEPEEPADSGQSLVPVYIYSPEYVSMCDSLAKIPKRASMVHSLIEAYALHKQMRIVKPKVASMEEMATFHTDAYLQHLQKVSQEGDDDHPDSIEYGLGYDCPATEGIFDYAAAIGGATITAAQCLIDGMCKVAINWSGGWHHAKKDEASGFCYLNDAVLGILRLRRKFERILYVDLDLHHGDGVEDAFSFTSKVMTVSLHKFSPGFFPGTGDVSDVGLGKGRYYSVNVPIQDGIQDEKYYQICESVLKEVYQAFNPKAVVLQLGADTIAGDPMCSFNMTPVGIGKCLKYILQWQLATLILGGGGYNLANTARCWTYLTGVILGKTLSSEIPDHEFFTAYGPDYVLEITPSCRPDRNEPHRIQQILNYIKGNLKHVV

Histone deacetylase 4 = Histone deacetylase 4 (Homo sapiens, UniProt P56524); assay: Inhibition of HDAC4 (unknown origin) using HDAC class IIa substrate (trifluoroacetyl-lysine-AMC) as substrate by fluorescent method
Chain of Histone deacetylase 4 (P56524 whole entry): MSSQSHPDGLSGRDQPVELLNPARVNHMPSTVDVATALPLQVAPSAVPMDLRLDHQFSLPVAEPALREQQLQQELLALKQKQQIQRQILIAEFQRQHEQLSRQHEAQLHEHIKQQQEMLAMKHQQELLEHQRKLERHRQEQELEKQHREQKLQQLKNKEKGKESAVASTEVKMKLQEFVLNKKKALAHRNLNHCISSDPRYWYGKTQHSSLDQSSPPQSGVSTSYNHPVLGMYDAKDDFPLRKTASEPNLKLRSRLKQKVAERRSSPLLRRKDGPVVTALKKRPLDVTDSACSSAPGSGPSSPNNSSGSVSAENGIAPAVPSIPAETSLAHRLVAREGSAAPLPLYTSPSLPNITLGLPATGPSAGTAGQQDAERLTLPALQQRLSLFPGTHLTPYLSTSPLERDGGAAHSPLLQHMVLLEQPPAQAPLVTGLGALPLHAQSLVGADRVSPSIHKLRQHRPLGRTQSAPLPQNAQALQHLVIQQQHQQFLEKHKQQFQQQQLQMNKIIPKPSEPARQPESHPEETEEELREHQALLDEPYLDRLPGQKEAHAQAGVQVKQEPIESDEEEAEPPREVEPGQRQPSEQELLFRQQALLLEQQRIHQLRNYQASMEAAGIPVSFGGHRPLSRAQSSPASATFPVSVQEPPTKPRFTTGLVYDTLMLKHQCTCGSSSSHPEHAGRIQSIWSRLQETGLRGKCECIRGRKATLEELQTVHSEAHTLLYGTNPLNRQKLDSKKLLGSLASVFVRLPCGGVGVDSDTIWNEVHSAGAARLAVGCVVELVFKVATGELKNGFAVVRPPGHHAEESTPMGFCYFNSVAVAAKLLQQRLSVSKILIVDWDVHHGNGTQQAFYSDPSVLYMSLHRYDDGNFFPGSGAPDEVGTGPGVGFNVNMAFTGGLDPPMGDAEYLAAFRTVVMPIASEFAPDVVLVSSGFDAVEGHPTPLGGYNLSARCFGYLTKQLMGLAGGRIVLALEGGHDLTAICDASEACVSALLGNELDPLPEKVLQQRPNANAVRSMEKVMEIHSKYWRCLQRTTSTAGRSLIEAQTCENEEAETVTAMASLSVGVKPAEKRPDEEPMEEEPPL

Histone deacetylase 9 = Histone deacetylase 9 (Homo sapiens, UniProt Q9UKV0); assay: Inhibition of HDAC9 (unknown origin) using HDAC class IIa substrate (trifluoroacetyl-lysine-AMC) as substrate by fluorescent method
Chain of Histone deacetylase 9 (Q9UKV0 whole entry, the tested form may be a part): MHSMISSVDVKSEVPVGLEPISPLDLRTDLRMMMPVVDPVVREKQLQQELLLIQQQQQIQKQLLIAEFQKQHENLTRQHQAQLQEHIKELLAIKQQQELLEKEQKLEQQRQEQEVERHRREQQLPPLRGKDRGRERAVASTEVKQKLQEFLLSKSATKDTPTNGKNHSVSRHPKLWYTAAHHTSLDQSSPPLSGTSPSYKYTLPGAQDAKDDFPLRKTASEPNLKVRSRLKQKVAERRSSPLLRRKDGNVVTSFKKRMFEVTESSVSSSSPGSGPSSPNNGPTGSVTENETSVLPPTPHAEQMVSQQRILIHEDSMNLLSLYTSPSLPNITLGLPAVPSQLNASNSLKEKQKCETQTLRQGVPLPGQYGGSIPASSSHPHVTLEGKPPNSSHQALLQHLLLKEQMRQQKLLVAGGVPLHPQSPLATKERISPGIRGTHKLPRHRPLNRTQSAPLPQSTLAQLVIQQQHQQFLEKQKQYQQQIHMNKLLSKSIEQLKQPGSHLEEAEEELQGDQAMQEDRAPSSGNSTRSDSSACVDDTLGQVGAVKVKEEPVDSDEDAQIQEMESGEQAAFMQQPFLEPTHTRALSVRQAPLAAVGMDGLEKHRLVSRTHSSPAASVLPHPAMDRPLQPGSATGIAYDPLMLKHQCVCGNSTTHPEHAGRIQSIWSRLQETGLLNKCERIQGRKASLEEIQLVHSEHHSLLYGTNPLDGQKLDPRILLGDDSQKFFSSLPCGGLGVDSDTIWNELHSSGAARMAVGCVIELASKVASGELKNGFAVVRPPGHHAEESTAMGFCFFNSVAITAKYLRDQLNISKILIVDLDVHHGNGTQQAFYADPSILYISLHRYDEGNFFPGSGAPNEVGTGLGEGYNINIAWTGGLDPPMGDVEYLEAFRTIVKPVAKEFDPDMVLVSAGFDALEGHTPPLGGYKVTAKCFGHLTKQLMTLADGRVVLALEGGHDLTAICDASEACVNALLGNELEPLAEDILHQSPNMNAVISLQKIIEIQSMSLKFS

[2] = biological target: T3, Polyamine deacetylase HDAC10 (Homo sapiens, UniProt Q969S8); assay: Inhibition of HDAC10 (unknown origin) using p53 residues (379 to 382)(RHKK(Ac)-AMC) as substrate by fluorescent method
T3 sequence (Q969S8 whole entry): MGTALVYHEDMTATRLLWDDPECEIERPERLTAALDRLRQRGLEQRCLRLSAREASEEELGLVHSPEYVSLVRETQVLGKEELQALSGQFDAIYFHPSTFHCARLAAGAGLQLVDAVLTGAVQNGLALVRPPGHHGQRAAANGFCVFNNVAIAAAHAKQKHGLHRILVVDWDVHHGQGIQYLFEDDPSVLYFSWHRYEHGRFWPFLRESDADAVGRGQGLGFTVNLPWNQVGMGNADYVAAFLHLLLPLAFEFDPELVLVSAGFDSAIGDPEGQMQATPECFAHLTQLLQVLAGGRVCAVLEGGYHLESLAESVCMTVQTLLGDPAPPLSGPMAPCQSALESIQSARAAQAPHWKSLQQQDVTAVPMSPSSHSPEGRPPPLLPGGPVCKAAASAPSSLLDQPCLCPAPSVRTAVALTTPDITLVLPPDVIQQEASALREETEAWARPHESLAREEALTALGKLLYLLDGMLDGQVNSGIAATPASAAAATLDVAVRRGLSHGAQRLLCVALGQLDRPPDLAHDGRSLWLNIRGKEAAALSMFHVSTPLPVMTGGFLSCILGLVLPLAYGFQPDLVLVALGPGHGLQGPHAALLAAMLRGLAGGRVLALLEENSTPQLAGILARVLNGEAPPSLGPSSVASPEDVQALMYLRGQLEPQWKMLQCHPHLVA

Compound CCCCCCCCCCCCCCCCNNC(=O)c1cccs1 has an IC50 [1] of over 10 µM.
Work on Cn1cc(-c2ccc(S(=O)(=O)n3ccc(/C=C/C(=O)Nc4ccccc4N)c3)cc2)cn1 [DOMATINOSTAT] yielded an IC50 (Histone deacetylase 8) of over 10 µM, an IC50 (Histone deacetylase 4) of over 10 µM and an IC50 (Histone deacetylase 9) of over 10 µM. It also gave an IC50 [2] of over 10 µM.

— ChEMBL document CHEMBL4765362, “Thirty Years of HDAC Inhibitors: 2020 Insight and Hindsight” (J Med Chem, 2020)
